This note sets out measurements from patent publication US6806291B1, “Analgesic compounds, their synthesis and pharmaceutical compositions containing them” (The Foundation for the LSU Health Sciences Center, priority 2003, dated 2004).

Data set [1] relates to human hepatocytes in primary cultures. The data set is described as follows: Hepatotoxic effect in primary human hepatocytes, Trypan blue exclusion and Hoechst staining. The format is cell-based. How it is done:
[…]. […] […].
Hoechst staining was employed for detection of apoptosis. […] 45 min.

In data set [2] the test system is Complete Freund's Adjuvant (CFA)-induced thermal hyperalgesia. The data set is described as follows: CFA-induced thermal hyperalgesia (paw withdrawal latency, Hargreaves). The format is in vivo, male CD-1 mice. As to conditions: 2.5 mmol/kg by oral gavage at 48 hours post-CFA; latency measured 30 minutes to 6 hour after drug; ANOVA drug effect p=0.014. How it is done:
To determine whether the SCP-M series has analgesic activity, its effect on Complete Freund's Adjuvant (CFA)—induced thermal hyperalgesia was accessed. Under halothane anesthesia, male CD-1 mice were injected with 0.1 ml of CFA (Calbiochem, USA) to the glabrous surface of one hind paw. When injected into the footpad, CFA produces localized inflammation and hyperalgesia that appears within two hours and is present for 7 to 10 days (Iadorola, et al., 1988). At 48-hours post-CFA (time of peak hyperalgesia), each mouse received by oral gavage 2.5 mmol/kg of SCP-M1 or vehicle. The latency to withdraw the paw from a thermal stimulus (Hargreaves, et al., 1988) was measured using an analgesiometer (IITC Life Sciences, Inc., Woodland Hills, Calif.) according to the technique of Hargreaves, et al. The stimulus intensity was set to produce baseline latencies of about 10-15 seconds, and a 20 second maximum latency was used. Thermal hyperalgesia was measured before drug administration (pre-drug baseline), and again at 30 minutes, 1 hour, 2 hour, 3 hour, 4 hour, 5 hour, and 6 hour after drug administration.
No other statistically significant effects were found (time effect: F(6,90)=0.486, p=0.817; drugxtime interaction: F(6,90)=0.634, p=0.793). The effects of SCP-M1 on CFA-induced thermal hyperalgesia are shown as a percentage of pre-drug baseline in FIG. 1.

The subject of data set [3] is human hepatocytes (HEPG-2). The protocol: (§1) The hepatotoxic effects of SCP-M1 were evaluated in human hepatocytes (HEPG-2) and in human primary cultures of normal liver cells. […] Phase contrast, microscopy, Trypan blue exclusion, Hoechst staining, and FAS-ligand and CAR (constitutive androstane receptor) induction were used as criteria. […] HEPG-2 cells were grown and maintained in EMEM medium containing NEAA (nonessential amino acids), supplemented with 10% fetal bovine serum (FBS), and incubated at 37° C. with a constant supply of 5% CO2. Primary human liver cells were grown in HCM medium (Walkersville, Md.), and maintained in HMM medium (Walkersville, Md.) at 37° C. with 5% CO2. 80% confluent cultures of HEPG2 and primary hepatocytes growing in 6- and 24-well plates, respectively were held 6-8 hr in serum-free medium (EMEM, 0.5% FBS for HEPG2 and HMM [Clonetics, Walkersville, Md.] for primary hepatocytes) before the addition of analgesics.

Data set [4] concerns FAS-ligand. The protocol:
as §1
(§2) The up-regulation of FAS-ligand (FAS-L) and activation of CAR (constitutive androstane receptor) were analyzed by Western blot. Briefly, the cell extracts were made, and adjusted for protein concentrations by the Bio-rad method. About 15-20 μg protein were loaded onto an 8-16% gel (Bio-rad), and electrophoresis was conducted for 2 hr at 120 V. The proteins were transferred onto nitrocellulose membrane at 30 V for 60 min at 4° C.

Data set [5] concerns CAR (constitutive androstane receptor). The protocol: as §1, §2

For `O=C(CNS(=O)(=O)c1ccccc1C(=O)O)Nc1ccc(O)cc1` [SCP-M1, 2-{[(4-hydroxyphenyl)carbamoyl]methylsulfamoyl}benzoic acid], the “apoptosis by Trypan blue exclusion and Hoechst staining” value in data set [1] (human) was “enhanced apoptosis was caused by acetaminophen but not SCP-M1”. The “analgesic effect on CFA-induced thermal hyperalgesia vs vehicle treated controls” value in data set [2] is listed as “significant analgesic effect”. In addition, the “apoptotic cell death by Hoechst staining” value in data set [3] is given as “practically ineffective in inducing cell death”. The “pro-apoptotic FAS-ligand up-regulation” value in data set [4] was “reduced effects”. For the same compound, the CAR activation result in data set [5] is reported as “reduced effects”.
For the compound `CC(=O)Nc1ccc(O)cc1` [acetaminophen, reference compound], in data set [1] (human hepatocytes in primary cultures, treated 6-8 hr at 37° C.), the “apoptosis by Trypan blue exclusion and Hoechst staining” value is reported as “enhanced apoptosis”.
